Measured values: ChEMBL document CHEMBL1126850, “Examination of the D2/5-HT2 affinity ratios of resolved 5,6,7,8,9,10-hexahydro-7,10-iminocyclohept[b]indoles: an enantioselective approach toward the design of potential atypical antipsychotics” (J Med Chem, 1993)

Target: Serotonin 2 (5-HT2) receptor (Rattus norvegicus, UniProt P30994+P08909+P14842)
Assay: In vitro binding affinity towards 5-hydroxytryptamine 2 receptor in rat striatal membranes by [3H]ketanserin displacement.
Type: cell membranes, Striatum, Membrane

O=C(CCCCN1C2CCC1c1c([nH]c3ccc(F)cc13)C2)c1ccc(F)cc1 (mixture of isomers)
Ki: 109 nM

O=C(CCCN1C2CCC1c1c([nH]c3ccc(F)cc13)C2)c1ccc(F)cc1 (mixture of isomers)
Ki: 2.56 nM

O=C(CCCCN1C2CCC1c1c([nH]c3ccc(F)cc13)C2)c1ccc(F)cc1 (racemic)
Ki: 2.98 nM

O=C(CCCN1C2CCC1c1c([nH]c3ccc(F)cc13)C2)c1ccc(F)cc1 (racemic)
Ki: 1.96 nM

O=C(CCCN1C2CCC1c1c([nH]c3ccc(F)cc13)C2)c1ccc(F)cc1 (stereo in doubt; (S,R) 8)
Ki: 0.8 nM

O=C(CCCCN1C2CCC1c1c([nH]c3ccc(F)cc13)C2)c1ccc(F)cc1 (stereo in doubt; (S,R)-9)
Ki: 1.87 nM
